Data as given in publication PMC4443670, “The C-terminal region of the motor protein MCAK controls its structure and activity through a conformational switch” (eLife, 2015).
Entries after “also recorded” stand apart in the source; their conditions may differ. Ends that are not written are not given here.

How the values were obtained:
MCAK motor domain [1] = biological target: T1, MCAK motor domain (Homo sapiens, UniProt Q99661); assay: X-ray crystal structure of motor domain with CT peptide (PDB 4UBF)
T1 construct: His-MCAK (183–583, M) and His-MCAK (1–583, NM) were subcloned in pET3aTr vector; made in house; host or cells: E. coli BL21(DE3) Codon plus
Description: 1 mM MCAK motor domain (PDB:2HEH, Addgene, Cambridge MA, USA) was incubated with the CT peptide 709[…]720 (China peptides Co, Ltd, China) in a ratio of 1:2 for 1 hr at 4°C before setting up crystallization trials. Elongated rectangular crystals appeared by vapor diffusion after two days in sitting drops using 24% wt/vol PEG 1500 and 20% vol/vol Glycerol as a precipitant. Crystals were grown in MRC 2 Well Crystallization Plate (Hampton Research, Aliso Viejo, CA, USA) at 19°C. Crystals were cryoprotected in a solution containing 28% wt/vol PEG 1500 and 30% vol/vol Glycerol and flash-frozen in dry liquid nitrogen.
Diffraction data were recorded at Diamond Light Source on beamline ID24 at 100 K. Data were processed using XDS package ([Kabsch, 2010]) and SCALA operated through the CCP4 suite GUI ([Collaborative Computational Project, Number 4, 1994]). The structure of the MCAK motor-tail complex was solved by molecular replacement using the program MOLREP. The MCAK motor domain structure (PDB code: 2HEH) was used as a search model. Structure refinement was performed using Refmac5 and Phenix ([Adams et al., 2010]). Figures were prepared using PyMOL ([Delano, 2002]).

[2] = test system: taxol-stabilized microtubules; assay: Microtubule depolymerisation assay; assay type: biochemical
Description: Microtubule depolymerization assays were performed essentially as described previously ([Hertzer et al., 2006]). MCAK was diluted to 100 nM in S-buffer containing 1 mM DTT and 2 mM Mg-ATP. For depolymerization assays of the motor domain in presence of the CT domain after GST cleavage and removal, 50 nM of motor domain and 100 nM of the CT domain were used. The microtubule depolymerization assay was initiated by the addition of 2 μM taxol-stabilized microtubules to a reaction buffer containing MCAK. Reactions were incubated at room temperature with increasing times and followed by centrifugation to separate microtubules from free tubulin. The data are represented as mean ± SD from three independent experiments.

[3] = test system: taxol-stabilized microtubules; assay: Microtubule cosedimentation assay, untreated microtubules; assay type: binding; settings: for detection of CT domain in microtubule-bound pellet / supernatant: western blot, 50 nM motor domain, with and without DTT
Description: Full-length MCAK complex was diluted in S buffer (50 mM NaCl, 20 mM Hepes pH 7.0) to 50 nM, in absence of nucleotide to prevent MCAK-dependent microtubule depolymerisation. To assemble an MCAK motor-CT domain complex, 50 nM of the motor domain and 100 nM of the CT domain were used. Microtubule binding assays were performed as described ([Cheeseman et al., 2006]) using equal volumes of taxol-stabilized microtubules in BRB80 and MCAK in S buffer. MCAK was quantified using anti-MCAK antibody against the C terminus of MCAK (709[…]720), generated by GL Biochem (Shangai) Ltd (China) or anti-His antibody to probe for the motor domain alone (GE Healthcare Lifesciences, UK). The data from at least three independent experiments were fitted to a modified Hill equation to determine the apparent Kd.

[4] = test system: MCAK motor domain (Cys287); assay: Covalent (disulphide) attachment of the CT domain to the motor domain; assay type: binding, human
Description: The GST-CTE712C and CTE712C domains were cross-linked to the motor domain by incubating them with the motor domain in a buffer containing 100 mM HEPES, pH 7.4, 150 mM NaCl but lacking DTT for 1 hr at 4°C. As a negative control the motor domain and the CTE712C domain were incubated in the identical buffer, supplemented with 5 mM DTT.

GST-CT domain = assay: Resin-based binding assay, CT domain self-interaction (CT domain to GST-CT); set-up: species or system human; settings: GST-CT on glutathione agarose; GST-cleaved CT domain
Excerpt: Kinesin-1 is regulated through an auto-inhibitory mechanism whereby one C-terminal tail binds at the interface of the two motors, such that it creates a second point of attachment in addition to the coiled coil region. This limits the head movement of one kinesin with respect to the other ([Stock et al., 1999]; [Hackney and Stock, 2000]; [Kaan et al., 2011]). We sought to test whether the C-terminal tail domain of MCAK, which has been proposed to regulate MCAK activity ([Moore and Wordeman, 2004]), was sufficient to interact with the motor domain. To do this, we expressed the N-terminal and motor region (residues 1–583, termed NM) or the motor region of MCAK along with the neck linker region (residues 181–583, termed M) as His-tagged proteins, and the C-terminal MCAK tail (residues 700–725, termed CT domain) as a GST fusion protein ([Moore and Wordeman, 2004]; [Hertzer et al., 2006]) (Figure 1A). […] We cannot however exclude a very tight interaction between two CT domains. […]
Protein expression was induced by addition of 0.5 mM IPTG to BL21(DE3) Codon plus cells transformed with respective constructs at OD600 of 0.7–0.8 for 16 hr at 18°C. […] Protein concentrations were determined with a combination of Bradford protein assays and densitometry of Coomassie-stained gels relative to a BSA standard. […]

MCAK motor domain [5] = biological target: T1, MCAK motor domain; assay: Analytical size-exclusion chromatography (motor-CT complex formation); assay type: binding; settings: Superdex 75 or Superose 6 10/300 GL; Coomassie-stained gel of fractions
Excerpt: Full-length MCAK is a dimer in solution ([Maney et al., 2001]). Therefore, we sought to test whether the CT domain interacts with one or two motor domains. To define the stoichiometry of this interaction, we subjected the complex to analytical size-exclusion chromatography. The motor domain alone behaves as a monomer and eluted with an apparent size of ∼45 kDa. […] Using SDS-PAGE analysis, we confirmed that the shift to a larger complex was due to the interaction of the motor domain with the CT domain (Figure 1C, bottom). […] The predicted masses for complexes of one and two CT domains bound to two motor domains are ∼94.2 and 97.7 kDa, respectively. […] Since the CT domain is unlikely to dimerize alone (Figure 1B), we conclude that the MCAK CT domain induces the dimerization of the motor domains cooperatively.
Protein expression was induced by addition of 0.5 mM IPTG to BL21(DE3) Codon plus cells transformed with respective constructs at OD600 of 0.7–0.8 for 16 hr at 18°C. Cells were lysed by sonication in lysis buffer (50 mM Hepes, pH 7.4, 200 mM NaCl, 1 mM MgCl2, 1 mM PMSF, 1 mg/ml DNaseI, 2 mg/ml lysozyme, 10 mM Imidazole) and clarified at 20,000 rpm for 1 hr at 4°C. His-tagged and GST-tagged proteins were subsequently purified using Ni-NTA–agarose beads and glutathione-sepharose beads, respectively (GE Healthcare Life Sciences, UK)) according to the manufacturer's guidelines. MCAK constructs containing the motor domain were eluted with elution buffer (50 mM Hepes, pH 7.4, 200 mM NaCl, 1 mM MgCl2, 1 mM ATP, and 300 mM imidazole). Cleavage of the GST tag was performed using the GST-3C protease overnight at 4°C. […] Protein concentrations were determined with a combination of Bradford protein assays and densitometry of Coomassie-stained gels relative to a BSA standard. […]

T1 sequence (Q99661 183-583): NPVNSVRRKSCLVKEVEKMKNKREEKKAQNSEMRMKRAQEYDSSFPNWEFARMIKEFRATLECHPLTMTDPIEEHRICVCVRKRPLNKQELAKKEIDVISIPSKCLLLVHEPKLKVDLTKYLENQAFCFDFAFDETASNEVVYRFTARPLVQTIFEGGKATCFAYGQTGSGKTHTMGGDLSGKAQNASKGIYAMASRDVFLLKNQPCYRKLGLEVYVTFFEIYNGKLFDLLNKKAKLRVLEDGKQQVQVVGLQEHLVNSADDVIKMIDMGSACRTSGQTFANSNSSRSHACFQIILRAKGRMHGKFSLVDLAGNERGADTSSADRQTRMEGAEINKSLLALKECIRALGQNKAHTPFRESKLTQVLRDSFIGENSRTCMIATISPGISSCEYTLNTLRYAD

Substance	binding mode in crystal structure (MCAK motor domain [1]; 3 Å, peptide 709QLEEQASRQISS720)	microtubule depolymerase activity of motor with CTE712C domain, absence of DTT ([2]; 50 nM motor domain, 100 nM CTE712C domain, 2 μM taxol-stabilized microtubules, no DTT, apparent activity)	microtubule depolymerase activity of motor with CTE712C domain, presence of DTT ([2]; 50 nM motor domain, 100 nM CTE712C domain, 2 μM taxol-stabilized microtubules, with DTT)	specific depolymerase activity of covalent MCAK motor-CTE712C complex ([2]; calculated by subtracting activity of motor alone (~50% of population))	reduction of fraction of MCAK motor bound to microtubules ([3]; 50 nM motor domain + CTE712C domain, oxidizing conditions (no DTT), absence of nucleotide) [%]	detection of CT domain in microtubule-bound pellet / supernatant [3]	binding to MCAK motor, presence of DTT ([4]; 5 mM DTT)	non-covalently bound MCAK fraction ([4]; motor-CTE712C domain complex, absence of DTT, Figure 6—figure supplement 1F)	formation of covalent complex with motor ([4]; oxidizing conditions (without DTT), 100 mM HEPES pH 7.4, 150 mM NaCl, 1 hr at 4°C)	interaction of CT domain with itself (GST-CT domain)	effect of free CT domain on MCAKS715E binding to microtubules ([3]; 100 nM full-length MCAKS715E, 2 μM taxol-stabilized microtubules, increasing free CT or CTS715E, repeated three times)	RMSD of overall structure of MCAK on CT domain binding (MCAK motor domain [1]; 3 Å crystal structure) [Å]	binding to / co-migration with motor domain by gel filtration (MCAK motor domain [5])
709QLEEQASRQISS720 [chemically synthesized peptide corresponding to the CT domain]	a single CT domain binds to both motor domains, close to their neck linker regions												
CTE712C: CT domain with Glu712 mutated to cysteine, forms disulphide bridge with motor Cys287 (VIKALRLAMQLECQASRQISSKKRPQ; also: Cys712 forms disulfide with motor Cys287; UniProt Q99661 700-725, looked up, fragment E712C)		displayed reduced depolymerase activity	the depolymerase activity was similar to that of the wild type MCAK motor alone	strongly inhibits the depolymerase activity of MCAK	~50	did not detect	did not bind the MCAK motor	45–50%	formed a covalent complex				
GPLGSIKALRLAMQLEEQASRQISSKKRPQ-OH [CT domain]						did not detect				unable to interact with itself through dimerization	decreased the affinity of MCAKS715E for microtubules	0.863	bound the motor domain independently of the GST; also recorded: the elution peak shifted to an earlier fraction, suggesting dimerization of the MCAK motor
